Measurements: ChEMBL document CHEMBL1201862, “PubChem BioAssay data set” (2004)
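Interpolation was linear, between the two tested concentrations surrounding the appropriate level; five concentrations were tested over 48 hours in 96-well plates. At the GI50, growth is halved.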 Active and inactive are the calls of the source. Cut-off read from the data, not from the text of the source: active = GI50 up to about 1.1 µM and inactive = higher.

What was measured:
Test in all cases: NCI anticancer screen, dose series, 48 h
A549 = test system: A549
CAKI-1 = test system: CAKI-1
COLO 205 = test system: COLO 205
HCT-116 = test system: HCT-116
HCT-15 = test system: HCT-15
HL-60 = test system: HL-60
K562 = test system: K562
NCI-H226 = test system: NCI-H226
NCI-H23 = test system: NCI-H23
NCI-H522 = test system: NCI-H522
SF-268 = test system: SF-268
SK-MEL-2 = test system: SK-MEL-2
TK-10 = test system: TK-10
UACC-257 = test system: UACC-257
BT-549 = test system: BT-549
MDA-MB-435 = test system: MDA-MB-435
NCI/ADR-RES = test system: NCI/ADR-RES
MDA-MB-231 = test system: MDA-MB-231
MDA-N = test system: MDA-N

| Structure (SMILES) | GI50 (A549) | GI50 (CAKI-1) | GI50 (COLO 205) | GI50 (HCT-116) | GI50 (HCT-15) | GI50 (HL-60) | GI50 (K562) | GI50 (NCI-H226) | GI50 (NCI-H23) | GI50 (NCI-H522) | GI50 (SF-268) | GI50 (SK-MEL-2) | GI50 (TK-10) | GI50 (UACC-257) | GI50 (BT-549) | GI50 (MDA-MB-435) | GI50 (NCI/ADR-RES) | GI50 (MDA-MB-231) | GI50 (MDA-N) |
| --- | --- | --- | --- | --- | --- | --- | --- | --- | --- | --- | --- | --- | --- | --- | --- | --- | --- | --- | --- |
| COC(=O)C(=O)C(C(=O)C(=O)Nc1ccccc1[N+](=O)[O-])c1nc2ccc([N+](=O)[O-])cc2nc1O (stereo not given) | > 100 µM (inactive) | > 100 µM (inactive) | > 100 µM (inactive) | > 100 µM (inactive) | > 100 µM | > 100 µM (inactive) | > 100 µM (inactive) | > 100 µM (inactive) | > 100 µM (inactive) | > 100 µM (inactive) | > 100 µM (inactive) | > 100 µM (inactive) | > 10 µM (inactive) | > 100 µM (inactive) | – | – | – | – | – |
| CN(C(=O)c1ccco1)C(=S)N1CCN(c2ccccc2)CC1 | > 100 µM (inactive) | > 100 µM (inactive) | > 100 µM (inactive) | > 100 µM (inactive) | > 100 µM | > 100 µM (inactive) | > 100 µM (inactive) | 71.3 µM (inactive) | > 100 µM (inactive) | > 100 µM (inactive) | > 100 µM (inactive) | > 100 µM (inactive) | > 100 µM (inactive) | > 100 µM (inactive) | – | – | – | – | – |
| O=C1C(=Cc2ccc(F)cc2)C(=O)c2ccccc21 | > 100 µM (inactive) | > 100 µM (inactive) | > 100 µM (inactive) | > 100 µM (inactive) | > 100 µM | 30.5 µM (inactive) | > 100 µM (inactive) | > 100 µM (inactive) | > 100 µM (inactive) | > 100 µM (inactive) | > 100 µM (inactive) | > 100 µM (inactive) | > 100 µM (inactive) | > 100 µM (inactive) | – | – | – | – | – |
| COc1cc2cc(C(=O)N3CC(CCl)c4c3cc(O)c3ccccc43)[nH]c2c(OC)c1OC (stereo not given) | < 0.005 µM (active) | – | < 0.005 µM (active) | < 0.005 µM (active) | < 0.005 µM | < 0.005 µM (active) | < 0.005 µM (active) | < 0.005 µM (active) | < 0.005 µM (active) | < 0.005 µM (active) | < 0.005 µM (active) | < 0.005 µM (active) | < 0.005 µM (active) | < 0.005 µM (active) | < 0.005 µM (active) | < 0.005 µM (active) | < 0.005 µM (active) | – | – |
| C/C(=N/O)c1ccc2c(c1)/C(=N/O)c1cc(/C(C)=N/O)ccc1-2 | 10.6 µM (inactive) | 35.8 µM (inactive) | 17.8 µM (inactive) | 20.1 µM (inactive) | 14.1 µM | 18.4 µM (inactive) | 17.8 µM (inactive) | 11.2 µM (inactive) | 12.9 µM (inactive) | 18.9 µM (inactive) | 14.9 µM (inactive) | 23.9 µM (inactive) | > 10 µM (inactive) | 2.39 µM (inactive) | – | – | – | – | – |
| O=c1c2ccccc2nc(-c2ccccc2Cl)n1NC1OC(CO)C(O)C(O)C1O (stereo not given) | > 100 µM (inactive) | > 100 µM (inactive) | > 100 µM (inactive) | > 100 µM (inactive) | > 100 µM | > 100 µM (inactive) | > 100 µM (inactive) | > 100 µM (inactive) | > 100 µM (inactive) | > 100 µM (inactive) | > 100 µM (inactive) | > 100 µM (inactive) | > 100 µM (inactive) | > 100 µM (inactive) | – | – | – | – | – |
| CCCCOC(=O)NC(Nc1ccc(S(=O)(=O)Nc2ncccn2)cc1)(C(F)(F)F)C(F)(F)F | > 100 µM (inactive) | > 100 µM (inactive) | > 100 µM (inactive) | > 100 µM (inactive) | > 100 µM | 89.7 µM (inactive) | > 100 µM (inactive) | > 100 µM (inactive) | > 100 µM (inactive) | > 100 µM (inactive) | > 100 µM (inactive) | – | > 100 µM (inactive) | – | – | > 100 µM (inactive) | > 100 µM (inactive) | > 100 µM (inactive) | > 100 µM (inactive) |
| COc1ccc(C(=O)C(CC2C(=O)NC(=O)NC2=O)c2ccc(OC)cc2)cc1 (stereo not given) | > 100 µM (inactive) | > 100 µM (inactive) | > 100 µM (inactive) | > 100 µM (inactive) | > 100 µM | > 100 µM (inactive) | > 100 µM (inactive) | > 100 µM (inactive) | > 100 µM (inactive) | > 100 µM (inactive) | > 100 µM (inactive) | > 100 µM (inactive) | > 100 µM (inactive) | > 100 µM (inactive) | – | – | – | – | – |
| COC(=O)[C@@H]1CSC(=S)N1C(=O)C[C@H]1CC=CC[C@H]1CC(=O)Sc1ccccc1 | 17.7 µM (inactive) | > 10 µM (inactive) | 19.5 µM (inactive) | 16.1 µM (inactive) | 16.2 µM | 3.47 µM (inactive) | 12.1 µM (inactive) | 23.7 µM (inactive) | 21 µM (inactive) | 12 µM (inactive) | 15.1 µM (inactive) | 22.2 µM (inactive) | > 10 µM (inactive) | 18.5 µM (inactive) | – | – | – | – | – |
